These results are taken from PubChem BioAssay AID686929 (Broad Institute, 2013).

Where “and” joins values, the source holds several entries; their conditions need not be identical. Equal values may be shown once. Calls of active or inactive are those of the source. No rule for the calls is given here.

Tested on in one experiment: not listed separately
The experiment is described as follows: Inducers of light in absence of autoinducers, V. cholerae BH1578, confirmatory (AID 686929). The conditions noted are these: V. cholerae BH1578 lux luminescence induction, 6 h; at 35 µM (top of the series).
As to `O=C(CC1CCCCC1)Nc1nnc(-c2ccc3c(c2)CCCC3)o1`, the activation (light induction) is 0.065% (inactive).

Still in this experiment, the particulars now being: V. cholerae BH1578 lux luminescence induction, 6 h; at 80 µM (top of the series).
Turning to `O=c1[nH]cnc2ccccc12`, the activation (light induction) was 0.008% (inactive).
In the case of `O=C(Nc1nnc(-c2cccc(Cl)c2)o1)C1CCCCC1`, the activation (light induction) is 0.048% (inactive).
Regarding `O=c1nc(Cc2ccccc2)n(-c2cccc(Cl)c2)c2ccccc12`, the activation (light induction) was 0.573% (inactive).
For `O=c1ncn(-c2ccc(F)c(Cl)c2)c2ccccc12`, the activation (light induction) was 1.31% (inactive).
As to `NC(=O)c1ccccc1Nc1cccc(Cl)c1`, the activation (light induction) is 0.018% (inactive).
The same measure, in the same setting: the figure for `O=c1ncn(-c2cccc(Cl)c2)c2ccc(Cl)cc12` is 3.29% (inactive); for `O=c1nc(-c2ccccc2)n(-c2cccc(Cl)c2)c2ccccc12` it is -0.004% (inactive); for `O=c1ncn(-c2cccc(Cl)c2)c2cccc(Cl)c12` it is 0% (inactive).
As to `O=c1ncn(-c2ccccc2)c2ccccc12`, the activation (light induction) is 4.58% (inactive).
Consider `O=c1ncn(-c2ccc(Cl)cc2)c2ccccc12`, for which the activation (light induction) was 0.027% (inactive).
Regarding `O=C(CSc1nc2c(c(=O)[nH]1)CCCC2)NC1CCCCC1`, the activation (light induction) is 0.02% (inactive).
On to `Cc1ccc2cc3c(NC(=O)c4ccoc4)nn(C)c3nc2c1`, for which the activation (light induction) is 0.289% (inactive).
In the case of `O=c1ncn(-c2ccc(Cl)c(Cl)c2)c2ccccc12`, the activation (light induction) was 0.027% (inactive).
In the case of `CCOC(=O)c1ccccc1Nc1cccc(Cl)c1`, the activation (light induction) is 0.004% (inactive).
Turning to `Cc1nc(=O)c2ccccc2n1-c1cccc(Cl)c1`, the activation (light induction) was 9.66% (inactive).
In the case of `O=C(CSc1nc2ccccc2c(=O)[nH]1)NC1CCCCC1`, the activation (light induction) was 0.005% (inactive).
For the compound `Cc1ccc(-n2cnc(=O)c3ccccc32)cc1Cl`, the activation (light induction) is 0.197% (inactive).
Turning to `O=C(CC1CCCCC1)Nc1nnc(-c2cccnc2)o1`, the activation (light induction) was -0.004% (inactive).
As for `O=c1ncn(Cc2ccc(Cl)cc2)c2ccccc12`, the activation (light induction) was 0.035% (inactive).
With `Cc1cccc(-n2cnc(=O)c3ccccc32)c1`, the activation (light induction) is 6.74% (inactive).
In the case of `O=c1ncn(-c2cccc(Cl)c2)c2cc(Cl)ccc12`, the activation (light induction) was 0.003% (inactive).
On the same count and under the same terms, the figure for `O=C(Nc1nnc(-c2ccc3c(c2)OCCO3)o1)C1CCCC1` is 0.417% (inactive).
As for `O=c1ncn(-c2cccc(F)c2)c2ccccc12`, the activation (light induction) was 12.4% (inactive).
Take `O=C1C(=O)N(Cc2ccccc2Cl)c2ccccc21`: the activation (light induction) is 0.156% (inactive).
In the case of `CCC(C)(C)C(=O)Nc1nnc(-c2ccc3c(c2)OCCO3)o1`, the activation (light induction) was -0.001% (inactive).
On the same count and under the same terms, the figure for `COc1ccc2c(=O)ncn(-c3cccc(Cl)c3)c2c1` is 0.008% (inactive); for `NC(=O)c1ccccc1Nc1ccccc1` it is 0.096% (inactive).
Take `Cn1cnc(=O)c2ccccc21`: the activation (light induction) was 0.023% (inactive).
On the same count and under the same terms, the figure for `COc1ccc(-n2cnc(=O)c3ccccc32)cc1Cl` is 0.017% (inactive); for `O=C(Nc1nnc(-c2ccc(Cl)cc2)o1)C1CCCCC1` it is 0.013% (inactive).
Consider `COc1cccc(-n2cnc(=O)c3ccccc32)c1`, for which the activation (light induction) was 0.108% (inactive).
Regarding `O=C1C(=O)N(Cc2cccc(Cl)c2)c2ccccc21`, the activation (light induction) was 0.001% (inactive).
As to `COC(=O)c1ccccc1Nc1cccc(Cl)c1`, the activation (light induction) was 0.155% (inactive).
On to `Cc1ccc2c(=O)ncn(-c3cccc(Cl)c3)c2c1`, for which the activation (light induction) is 0.023% (inactive).
Take `O=C(O)c1ccccc1Nc1cccc(Cl)c1`: the activation (light induction) was 0.019% (inactive).
On to `CCc1nc(=O)c2ccccc2n1-c1cccc(Cl)c1`, for which the activation (light induction) was 0.156% (inactive).
For the compound `O=C(Nc1nnc(-c2ccc3c(c2)CCCC3)o1)C1CCC1`, the activation (light induction) was -0.004% (inactive).
In the case of `O=c1ncn(-c2ccccc2Cl)c2ccccc12`, the activation (light induction) is 0.05% (inactive).
Take `Cc1ccc2c(c1)c(=O)ncn2-c1cccc(Cl)c1`: the activation (light induction) is 2.5% (inactive).

The experiment is the same for the next values; noted with them: V. cholerae BH1578 lux luminescence induction, 6 h; at 100 µM (top of the series).
As for `O=C(Nc1nnc(C2CCCC2)o1)C1CCCCC1`, the activation (light induction) is -0.004% (inactive).
`COc1ccc(-c2nnc(NC(C)=O)o2)cc1`: the activation (light induction) was 0.061% (inactive).
On the same count and under the same terms, the value for `O=C(Nc1nnc(-c2ccc3c(c2)OCCO3)o1)C(F)(F)c1ccccc1` was -0.005% (inactive); that for `Cc1ccc2cc3c(NC(=O)c4ccc(C)o4)nn(C)c3nc2c1` was -0.007% (inactive); that for `O=C(Nc1nnc(-c2cccnc2)o1)C1CCC1` was 0% (inactive).
For the compound `CCn1nnnc1N`, the activation (light induction) was 0.004% (inactive).
The same measure, in the same setting: the figure for `CCn1nnnc1/N=C/c1ccc(N2CCCCC2)cc1` is 0.106% (inactive); for `Cn1nc(NC(=O)c2ccco2)c2cc3ccc(C(C)(C)C)cc3nc21` it is -0.001% (inactive); for `O=C(Cc1ccc(-c2ccccc2)cc1)N[C@@H]1CCOC1` (racemic) it is 12.2% (inactive).
For the compound `O=C(Nc1nnc(-c2ccc3c(c2)OCCO3)o1)C1CC1`, the activation (light induction) was 0.006% (inactive).
With `CN1CCC(C(=O)Nc2nnc(-c3ccc4c(c3)OCCO4)o2)CC1`, the activation (light induction) was 0.038% (inactive).
Same read-out and setting: the value for `CC(C)c1ccc2cc3c(NC(=O)c4ccco4)nn(C)c3nc2c1` was 0.254% (inactive).
Same read-out and setting: the figure for `CC(C)(C)OC(=O)N1CCC(C(=O)Nc2nnc(-c3ccc4c(c3)OCCO4)o2)CC1` is 0.022% (inactive); for `Cc1ccc2cc3c(NC(=O)c4ccccn4)nn(C)c3nc2c1` it is -0.008% (inactive).
Same read-out and setting: the value for `O=C(Nc1nnc(-c2ccccc2Cl)o1)C1CCCCC1` was 0.002% (inactive); that for `Cn1nc(NC(=O)c2ccco2)c2ccccc21` was 0.203% (inactive); that for `COc1cccc(-c2nnc(NC(=O)C3CCCCC3)o2)c1` was 0% (inactive).
Take `Cc1ccc2cc3c(NC(=O)Cc4ccco4)nn(C)c3nc2c1`: the activation (light induction) is 0.2% (inactive).
On to `O=S(=O)(Nc1nnc(-c2ccc3c(c2)OCCO3)o1)c1ccc(Cl)cc1`, for which the activation (light induction) is -0.005% (inactive).
Turning to `Cn1ccc(NC(=O)c2ccco2)n1`, the activation (light induction) was 0.065% (inactive).
On the same count and under the same terms, the value for `O=C(Nc1nnc(-c2ccncc2)o1)C1CCC1` was 0.061% (inactive); that for `O=C(Cc1ccc(-c2ccccc2)cc1)NC1CNC1` was 0.02% (inactive); that for `O=C(Nc1nnc(-c2cccnc2)o1)C1CCCCC1` was 3.01% (inactive).
For the compound `CN(C)/C=N/c1nnc(-c2ccc3c(c2)OCCO3)o1`, the activation (light induction) is 0.03% (inactive).
Turning to `O=C(Cc1ccc(-c2ccccc2)cc1)NC1COC1`, the activation (light induction) was 1.9% (inactive).
The same measure, in the same setting: the figure for `O=C(Nc1nnc(-c2ccc3c(c2)OCCO3)o1)C1CCC1` is 0.011% (inactive).
Take `C(=N\c1nnc(-c2ccc3c(c2)OCCO3)o1)/c1ccccc1`: the activation (light induction) was 0.009% (inactive).
In the case of `CCn1nnnc1NC(C)c1ccc(N2CCCC2)cc1` (configuration not stated), the activation (light induction) was 11.2% (inactive).
Regarding `c1ccc(CNc2nnc(-c3ccc4c(c3)OCCO4)o2)cc1`, the activation (light induction) is 0.008% (inactive).
Consider `Cc1ccc2cc3c(NC(=O)c4cc5ccccc5o4)nn(C)c3nc2c1`, for which the activation (light induction) is -0.011% (inactive).
With `COc1ccc(S(=O)(=O)Nc2nnc(-c3ccc4c(c3)OCCO4)o2)cc1`, the activation (light induction) is 0.008% (inactive).

The next experiment deals with V. cholerae BH1578 lux luminescence induction, 6 h. The experiment is described as above.
Settings: not given
For the compound `Cc1cc(F)c2cc3c(NC(=O)c4ccco4)nn(C)c3nc2c1`, the AC40 is > 100 µM (inactive).
For the compound `O=C(Nc1nnc(-c2ccc3c(c2)OCCO3)o1)C1CCCCC1`, the AC40 was 5.45 µM and 1.91 µM.
As for `CC(C)(C)COC(=O)CSc1n[nH]c(=O)[nH]c1=O`, the AC40 is 8.89 µM.
With `Cc1cc(F)cc2nc3c(cc12)c(NC(=O)c1ccco1)nn3C`, the AC40 was 83.3 µM.
Turning to `COc1ccc2cc3c(NC(=O)c4ccco4)nn(C)c3nc2c1`, the AC40 was 2.97 µM.
Regarding `CCCCCCCCCC(=O)C(O)CC` (configuration not stated), the AC40 was 3.81 µM.
Take `CCCCCCCCCC(=O)[C@H](O)CC` (racemic): the AC40 was 11.5 µM.
`Cn1nc(NC(=O)c2ccco2)c2cccnc21`: the AC40 is 48.8 µM.
For the compound `O=c1ncn(-c2cc(Cl)cc(Cl)c2)c2ccccc12`, the AC40 was > 80 µM (inactive).
For `Cc1ccc2cc3c(NC(=O)c4cccs4)nn(C)c3nc2c1`, the AC40 is > 80 µM (inactive).
With `Cc1ccc2cc3c(NC(=O)c4ccco4)nn(C)c3nc2c1`, the AC40 was 10.4 µM and 54.6 µM.
Still for that read-out and setting: the value for `Cc1cc2nc3c(cc2cc1F)c(NC(=O)c1ccco1)nn3C` was 25.3 µM.
Take `COc1ccccc1-c1nnc(NC(=O)C2CCCCC2)o1`: the AC40 was > 100 µM (inactive).
Still for that read-out and setting: the value for `Cc1cc2cc3c(NC(=O)c4ccco4)nn(C)c3nc2cc1C` was 45.7 µM; that for `Cn1nc(NC(=O)c2ccco2)c2cc3ccccc3nc21` was 6.9 µM.
Turning to `COc1ccc(-c2nnc(NC(=O)C3CCCCC3)o2)cc1`, the AC40 is > 100 µM (inactive).
Consider `CCc1ccc2cc3c(NC(=O)c4ccco4)nn(C)c3nc2c1`, for which the AC40 is 52.1 µM.
`O=C(Cc1ccc(-c2ccccc2)cc1)NC1CCC1`: the AC40 is 1.74 µM.
Take `Cc1ccc2cc3c(NC(=O)C4CCCC4)nn(C)c3nc2c1`: the AC40 was 73.5 µM.
Still for that read-out and setting: the value for `CCn1nnnc1NCc1ccc(C(C)C)cc1` was 0.923 µM; that for `O=C(Nc1nnc(-c2ccc3c(c2)OCCO3)o1)C1CCCCCC1` was 11.8 µM.
